Measurements as given in ChEMBL document CHEMBL4043190 (Bioorg Med Chem Lett, 2017).
pKi: −log10 of the molar value.

Legend:
[1] = Protein binding in rat plasma; type: ADME, cell-free; details: read-out: PPB (converted)
[2] = target: Cyclin-dependent kinase 9 (Homo sapiens, UniProt P50750); details: 70 nM
[3] = target: Tyrosine-protein kinase JAK1 (Homo sapiens, UniProt P23458); experiment: Inhibition of JAK1 (unknown origin)
[4] = Ratio of unbound drug concentration in IL-23/IL-1beta induced C57BL/6J mouse plasma at 30 mg/kg, po to EC50 for TYK2 (unknown origin) assessed as inhibition of IL-23 induced STAT3 phosphorylation
Homo sapiens = organism: Homo sapiens; experiment: Selectivity ratio of EC50 for JAK2 (unknown origin) assessed as EPO-induced STAT5 phosphorylation to EC50 for TYK2 (unknown origin) assessed as IL-23-induced STAT3 phosphorylation
Mus musculus [5] = experiment: Antiinflammatory activity in IMQ-induced BALB/c mouse model assessed as reduction in serum IL-17F production administered po bid for 5 days; type: functional, organism-based
Mus musculus [6] = experiment: Anti-inflammatory activity in IL-23/IL-1beta induced C57BL/6J mouse assessed as inhibition of IL-17F level in serum at 70 mg/kg, po pretreated for 30 mins followed by cytokine addition measured after 3 hrs by ELISA relative to control; type: functional
Mus musculus [7] = experiment: Toxicity in IMQ-induced BALB/c mouse model assessed as reduction in platelet levels at 100 mg/kg, po bid for 5 days; type: organism-based; parameters: scale not given: the % may be the effect or the level left; details: in vivo, 120 h
[8] = Efflux ratio of permeability from basolateral to apical over apical to basolateral side in MDCK cells; type: ADME, cell-based, Canis lupus familiaris; details: dog
[9] = target: Tyrosine-protein kinase JAK2 (Homo sapiens, UniProt O60674); experiment: Inhibition of JAK2 (unknown origin) by biochemical assay
Sequence of Tyrosine-protein kinase JAK2 (O60674 whole entry): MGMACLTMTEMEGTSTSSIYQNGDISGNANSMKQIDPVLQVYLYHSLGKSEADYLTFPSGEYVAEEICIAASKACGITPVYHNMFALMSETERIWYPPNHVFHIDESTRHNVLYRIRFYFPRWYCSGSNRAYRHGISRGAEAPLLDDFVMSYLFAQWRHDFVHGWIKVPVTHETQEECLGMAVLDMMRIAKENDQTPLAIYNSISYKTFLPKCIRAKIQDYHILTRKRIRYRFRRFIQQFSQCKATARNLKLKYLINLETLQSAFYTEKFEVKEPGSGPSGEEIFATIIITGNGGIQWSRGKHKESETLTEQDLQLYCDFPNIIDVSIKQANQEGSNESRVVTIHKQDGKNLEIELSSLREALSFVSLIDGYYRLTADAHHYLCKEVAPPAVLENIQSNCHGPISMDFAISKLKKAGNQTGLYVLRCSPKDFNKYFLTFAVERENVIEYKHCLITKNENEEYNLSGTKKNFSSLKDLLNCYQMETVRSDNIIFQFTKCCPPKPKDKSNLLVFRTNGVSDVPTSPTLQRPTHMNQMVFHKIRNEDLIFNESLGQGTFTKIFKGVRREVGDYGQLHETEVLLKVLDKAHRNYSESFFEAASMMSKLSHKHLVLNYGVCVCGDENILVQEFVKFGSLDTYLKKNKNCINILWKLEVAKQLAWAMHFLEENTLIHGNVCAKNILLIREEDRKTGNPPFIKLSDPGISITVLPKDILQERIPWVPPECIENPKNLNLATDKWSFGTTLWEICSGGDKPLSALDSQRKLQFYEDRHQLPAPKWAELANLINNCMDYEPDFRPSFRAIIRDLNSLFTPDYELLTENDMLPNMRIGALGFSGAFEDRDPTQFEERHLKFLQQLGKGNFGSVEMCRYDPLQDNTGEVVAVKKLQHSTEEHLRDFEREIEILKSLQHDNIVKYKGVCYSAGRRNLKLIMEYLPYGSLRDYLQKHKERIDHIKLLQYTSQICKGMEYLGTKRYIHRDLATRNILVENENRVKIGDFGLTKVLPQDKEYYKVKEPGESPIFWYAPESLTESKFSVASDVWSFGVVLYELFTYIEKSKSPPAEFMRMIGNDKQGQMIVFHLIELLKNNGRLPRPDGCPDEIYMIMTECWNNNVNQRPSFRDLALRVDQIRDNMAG

[10] = Clearance in rat; type: ADME; details: in vivo
Mus musculus [11] = experiment: Anti-inflammatory activity in IL-23/IL-1beta induced C57BL/6J mouse assessed as inhibition of IL-17F level in serum at 100 mg/kg, po pretreated for 30 mins followed by cytokine addition measured after 3 hrs by ELISA relative to control; type: functional
Mus musculus [12] = experiment: Antiinflammatory activity in IMQ-induced BALB/c mouse psoriasis model assessed as reduction in ear thickness at 30 mg/kg, po bid for 5 days meausred on day 6; type: functional; parameters: scale not given: the % may be the effect or the level left
Mus musculus [13] = experiment: Antiinflammatory activity in IMQ-induced BALB/c mouse psoriasis model assessed as reduction in ear thickness at 70 mg/kg, po bid for 5 days meausred on day 6; type: functional; parameters: scale not given: the % may be the effect or the level left
Mus musculus [14] = experiment: Antiinflammatory activity in IMQ-induced BALB/c mouse psoriasis model assessed as reduction in ear thickness at 100 mg/kg, po bid for 5 days meausred on day 6; type: functional; parameters: scale not given: the % may be the effect or the level left
Mus musculus [15] = experiment: Anti-inflammatory activity in IL-23/IL-1beta induced C57BL/6J mouse assessed as inhibition of IL-17F level in serum at 30 mg/kg, po pretreated for 30 mins followed by cytokine addition measured after 3 hrs by ELISA relative to control; type: functional

Sequence of Tyrosine-protein kinase JAK1 (P23458 whole entry): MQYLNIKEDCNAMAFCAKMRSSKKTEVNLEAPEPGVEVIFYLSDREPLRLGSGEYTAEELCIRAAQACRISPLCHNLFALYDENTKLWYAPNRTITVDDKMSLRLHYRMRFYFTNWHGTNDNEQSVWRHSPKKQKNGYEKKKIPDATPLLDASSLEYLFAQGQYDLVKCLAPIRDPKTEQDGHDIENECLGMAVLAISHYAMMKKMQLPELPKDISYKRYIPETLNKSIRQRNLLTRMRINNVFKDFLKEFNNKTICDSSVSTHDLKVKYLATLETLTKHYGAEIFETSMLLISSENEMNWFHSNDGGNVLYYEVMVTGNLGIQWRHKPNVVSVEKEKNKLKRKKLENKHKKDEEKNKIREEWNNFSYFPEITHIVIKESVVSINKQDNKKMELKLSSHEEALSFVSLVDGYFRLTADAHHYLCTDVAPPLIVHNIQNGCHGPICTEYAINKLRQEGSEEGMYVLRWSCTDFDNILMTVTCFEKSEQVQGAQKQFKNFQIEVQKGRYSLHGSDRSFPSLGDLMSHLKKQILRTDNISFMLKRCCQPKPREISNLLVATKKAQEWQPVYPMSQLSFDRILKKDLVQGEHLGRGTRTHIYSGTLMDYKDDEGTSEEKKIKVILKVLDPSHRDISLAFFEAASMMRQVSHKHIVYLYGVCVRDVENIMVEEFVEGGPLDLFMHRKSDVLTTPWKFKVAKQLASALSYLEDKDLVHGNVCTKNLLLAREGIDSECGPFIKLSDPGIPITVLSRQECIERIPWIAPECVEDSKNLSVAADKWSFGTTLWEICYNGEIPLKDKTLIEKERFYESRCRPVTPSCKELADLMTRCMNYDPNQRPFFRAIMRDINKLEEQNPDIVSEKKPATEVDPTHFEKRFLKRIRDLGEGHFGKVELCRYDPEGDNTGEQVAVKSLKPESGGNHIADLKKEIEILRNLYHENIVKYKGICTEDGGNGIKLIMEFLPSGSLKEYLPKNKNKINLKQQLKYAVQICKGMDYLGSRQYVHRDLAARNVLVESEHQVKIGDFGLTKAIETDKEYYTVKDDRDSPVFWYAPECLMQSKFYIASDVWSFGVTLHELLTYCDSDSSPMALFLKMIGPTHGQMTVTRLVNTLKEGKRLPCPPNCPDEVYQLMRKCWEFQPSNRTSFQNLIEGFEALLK
Sequence of Cyclin-dependent kinase 9 (P50750 whole entry): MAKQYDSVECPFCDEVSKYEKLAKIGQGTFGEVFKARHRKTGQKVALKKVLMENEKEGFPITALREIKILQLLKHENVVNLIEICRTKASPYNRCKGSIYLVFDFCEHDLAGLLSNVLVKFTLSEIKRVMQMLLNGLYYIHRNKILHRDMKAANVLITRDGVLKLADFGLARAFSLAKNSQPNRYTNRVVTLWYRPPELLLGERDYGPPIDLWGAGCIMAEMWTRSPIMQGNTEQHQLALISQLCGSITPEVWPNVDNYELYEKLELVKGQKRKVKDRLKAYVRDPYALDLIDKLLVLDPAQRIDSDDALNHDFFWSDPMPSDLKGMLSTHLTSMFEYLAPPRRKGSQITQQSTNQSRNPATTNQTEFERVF

SMILES: Cc1cc(Nc2nccc3nc(-c4c(Cl)cc(C#N)cc4Cl)[nH]c23)ncn1
- fraction unbound [1]: 0.039
- inhibition [2]: > 50%
- pKi [3]: 7.62
- Ratio [4]: 13
- Ratio EC50 (Homo sapiens): 21
- inhibition (Mus musculus [5]): Dose-dependent effect
- inhibition in vivo at 70 mg/kg (Mus musculus [6]): 72%
- Activity (Mus musculus [7]): 54%
- efflux ratio [8]: 1.1
- pKi [9]: 7.66
- clearance [10]: 5.1 mL/min/kg
- inhibition in vivo at 100 mg/kg (Mus musculus [11]): 87%
- Activity (Mus musculus [12]): 20%
- Activity (Mus musculus [13]): 78%
- Activity (Mus musculus [14]): 82%
- inhibition in vivo at 30 mg/kg (Mus musculus [15]): 30%
